The assay concerns the target T1, Recombinant human TLR7 (Homo sapiens, UniProt Q9NYK1).
T1 construct: expressed in transfected cells; host or cells: HEK293 cell line stably expressing the pNiFty2-SEAP reporter plasmid; TLR7 in vector pUNO, blasticidin selection
T1 sequence (Q9NYK1 27-1049): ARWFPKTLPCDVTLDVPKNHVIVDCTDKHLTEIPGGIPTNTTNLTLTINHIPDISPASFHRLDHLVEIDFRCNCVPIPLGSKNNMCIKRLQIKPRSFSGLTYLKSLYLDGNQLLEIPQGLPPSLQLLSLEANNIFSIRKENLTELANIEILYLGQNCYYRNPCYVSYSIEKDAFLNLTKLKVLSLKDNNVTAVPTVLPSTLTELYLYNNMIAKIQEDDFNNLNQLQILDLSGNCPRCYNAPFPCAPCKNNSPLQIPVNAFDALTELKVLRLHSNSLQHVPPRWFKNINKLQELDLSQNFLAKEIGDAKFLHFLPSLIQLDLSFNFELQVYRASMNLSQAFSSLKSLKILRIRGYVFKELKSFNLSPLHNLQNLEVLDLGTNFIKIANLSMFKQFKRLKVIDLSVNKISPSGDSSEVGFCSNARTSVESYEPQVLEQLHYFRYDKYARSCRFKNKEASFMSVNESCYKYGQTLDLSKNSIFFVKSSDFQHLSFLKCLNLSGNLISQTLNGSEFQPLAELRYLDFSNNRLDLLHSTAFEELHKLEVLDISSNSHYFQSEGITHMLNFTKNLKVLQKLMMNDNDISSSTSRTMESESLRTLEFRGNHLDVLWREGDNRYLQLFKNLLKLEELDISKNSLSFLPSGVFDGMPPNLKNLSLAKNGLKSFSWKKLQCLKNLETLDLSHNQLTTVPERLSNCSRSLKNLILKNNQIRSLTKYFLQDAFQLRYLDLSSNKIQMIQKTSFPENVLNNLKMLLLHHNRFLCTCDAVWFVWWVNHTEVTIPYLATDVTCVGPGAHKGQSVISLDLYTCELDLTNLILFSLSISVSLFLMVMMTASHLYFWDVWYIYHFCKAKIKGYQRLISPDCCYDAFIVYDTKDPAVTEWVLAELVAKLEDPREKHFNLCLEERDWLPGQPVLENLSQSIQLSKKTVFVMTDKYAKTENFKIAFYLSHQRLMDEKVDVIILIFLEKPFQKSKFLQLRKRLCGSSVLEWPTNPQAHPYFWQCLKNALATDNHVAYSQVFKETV
The assay is described as follows: Human TLR7 Assay (SEAP reporter).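 Also: SEAP driven by an NFkB-responsive composite promoter, pEC50 read at half of each compound's own maximal SEAP induction.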 In kind it is cell-based. Particulars: HEK293 cell line stably expressing human TLR7 and pNiFty2-SEAP reporter; SEAP induction after overnight incubation at 37° C., 0.1% (v/v) DMSO.

The text below walks through data of patent US8268990B2, “Compounds” (AstraZeneca AB, priority 2007, dated 2012).

Usually EC50 stands for the concentration at which the effect is half-maximal.

Excerpt: Recombinant human TLR7 was stably expressed in a HEK293 cell line already stably expressing the pNiFty2-SEAP reporter plasmid; integration of the reporter gene was maintained by selection with the antibiotic zeocin. The most common variant sequence of human TLR7 (represented by the EMBL sequence AF240467) was cloned into the mammalian cell expression vector pUNO and transfected into this reporter cell-line. Transfectants with stable expression were selected using the antibiotic blasticidin. In this reporter cell-line, expression of secreted alkaline phosphatase (SEAP) is controlled by an NFkB/ELAM-1 composite promoter comprising five NFkB sites combined with the proximal ELAM-1 promoter. TLR signaling leads to the translocation of NFkB and activation of the promoter results in expression of the SEAP gene. TLR7-specific activation was assessed by determining the level of SEAP produced following overnight incubation of the cells at 37° C. with the standard compound in the presence of 0.1% (v/v) dimethylsulfoxide (DMSO). Concentration dependent induction of SEAP production by compounds was expressed as the concentration of compound which produced half of the maximal level of SEAP induction for that compound (pEC50).

As for `CCCCCNc1nc(N)nc(C)c1CCCNCc1cccc(CC(=O)OC)c1` [Example 1, Methyl 2-(3-((3-(2-Amino-4-methyl-6-(pentylamino)pyrimidin-5-yl)propylamino)methyl)phenyl)acetate], the EC50 was 0.501 µM.
To `CCCCCNc1nc(N)nc(C)c1CCCNCc1ccc(CC(=O)OC)cc1` [Example 2, Methyl 2-(4-((3-(2-amino-4-methyl-6-(pentylamino)pyrimidin-5-yl)propylamino)methyl)phenyl)acetate] belongs 1 µM.
Next, `CCCCCNc1nc(N)nc(C)c1CCCN(Cc1cccc(CC(=O)OC)c1)C(=O)CN(C)C` [Example 3, Methyl 2-(3-((N-(3-(2-amino-4-methyl-6-(pentylamino)pyrimidin-5-yl)propyl)-2-(dimethylamino)acetamido)methyl)phenyl)acetate]: 0.631 µM; `CCCCCNc1nc(N)nc(C)c1CCCN(Cc1ccc(CC(=O)OC)cc1)C(=O)CN(C)C` [Example 4, Methyl 2-(4-((N-(3-(2-amino-4-methyl-6-(pentylamino)pyrimidin-5-yl)propyl)-2-(dimethylamino)acetamido)methyl)phenyl)acetate]: 0.398 µM; `CCCCCNc1nc(N)nc(C)c1CCCN(Cc1cccc(CC(=O)OC)c1)C(=O)CN1CCC[C@H]1C(=O)OC` [Example 5, (S)-Methyl 1-(2-((3-(2-amino-4-methyl-6-(pentylamino)pyrimidin-5-yl)propyl)(3-(2-methoxy-2-oxoethyl)benzyl)amino)-2-oxoethyl)pyrrolidine-2-carboxylate]: 0.631 µM.
To `CCCCCNc1nc(N)nc(C)c1CCCN(Cc1cccc(CC(=O)OC)c1)C(=O)CN1CCC(O)CC1` [Example 7, Methyl 2-(3-((N-(3-(2-amino-4-methyl-6-(pentylamino)pyrimidin-5-yl)propyl)-2-(4-hydroxypiperidin-1-yl)acetamido)methyl)phenyl)acetate] belongs 2.51 µM; to `CCCCCNc1nc(N)nc(C)c1CCCN(Cc1cccc(CC(=O)OC)c1)C(=O)CN1CCCN(C(C)=O)CC1` [Example 8, Methyl 2-(3-((2-(4-acetyl-1,4-diazepan-1-yl)-N-(3-(2-amino-4-methyl-6-(pentylamino)pyrimidin-5-yl)propyl)acetamido)methyl)phenyl)acetate], 2.51 µM; to `CCCCCNc1nc(N)nc(C)c1CCCN(Cc1cccc(CC(=O)OC)c1)C(=O)CN1CCN(CCCN(C)C)CC1` [Example 9, Methyl 2-(3-((N-(3-(2-amino-4-methyl-6-(pentylamino)pyrimidin-5-yl)propyl)-2-(4-(3-(dimethylamino)propyl)piperazin-1-yl)acetamido)methyl)phenyl)acetate], 3.98 µM.
Consider `CCCCCNc1nc(N)nc(C)c1CCCN(Cc1cccc(CC(=O)OC)c1)C(=O)CN(C)CCO` [Example 10], for which the 50% effective concentration (EC50) is 1.58 µM.
To `CCCCCNc1nc(N)nc(C)c1CCCN(Cc1cccc(CC(=O)OC)c1)C(=O)CCC(=O)OC` [Example 11, Methyl 4-((3-(2-amino-4-methyl-6-(pentylamino)pyrimidin-5-yl)propyl)(3-(2-methoxy-2-oxoethyl)benzyl)amino)-4-oxobutanoate] belongs 1 µM; to `CCCCCNc1nc(N)nc(C)c1CCCN(Cc1cccc(CC(=O)OC)c1)C(=O)CCCN(C)C` [Example 12, Methyl 2-(3-((N-(3-(2-amino-4-methyl-6-(pentylamino)pyrimidin-5-yl)propyl)-4-(dimethylamino)butanamido)methyl)phenyl)acetate], 1.58 µM; to `CCCCCNc1nc(N)nc(C)c1CCCN(Cc1cccc(CC(=O)OC)c1)S(C)(=O)=O` [Example 13, Methyl 2-(3-((N-(3-(2-amino-4-methyl-6-(pentylamino)pyrimidin-5-yl)propyl)methylsulfonamido)methyl)phenyl)acetate], 2.51 µM.
To `CCCCCNc1nc(N)nc(C)c1CCCN(Cc1cccc(CC(=O)OC)c1)S(=O)(=O)c1cn(C)cn1` [Example 14, Methyl 2-(3-((N-(3-(2-amino-4-methyl-6-(pentylamino)pyrimidin-5-yl)propyl)-1-methyl-1H-imidazole-4-sulfonamido)methyl)phenyl)acetate] belongs 1.26 µM; to `CCCCCNc1nc(N)nc(C)c1CCCN(Cc1ccc(CC(=O)OC)cc1)C(=O)CN(C)CCOC` [Example 15, Methyl 2-(4-((N-(3-(2-amino-4-methyl-6-(pentylamino)pyrimidin-5-yl)propyl)-2-((2-methoxyethyl)(methyl)amino)acetamido)methyl)phenyl)acetate], 0.398 µM; to `CCCCCNc1nc(N)nc(C)c1CCCCNCc1cccc(CC(=O)OC)c1` [Example 17, Methyl 2-(3-((4-(2-amino-4-methyl-6-(pentylamino)pyrimidin-5-yl)butylamino)methyl)phenyl)acetate], 1 µM.
To `CCCC[C@@H](CCO)Nc1nc(N)nc(C)c1CCCNCc1ccc(CC(=O)OC)cc1` [Example 18, (S)-Methyl 2-(4-((3-(2-amino-4-(1-hydroxyheptan-3-ylamino)-6-methylpyrimidin-5-yl)propylamino)methyl)phenyl)acetate] belongs 1.58 µM.
`CCCC[C@@H](CCO)Nc1nc(N)nc(C)c1CCCN(Cc1ccc(CC(=O)OC)cc1)C(=O)CN(C)C` [Example 19, (S)-Methyl 2-(4-((N-(3-(2-amino-4-(1-hydroxyheptan-3-ylamino)-6-methylpyrimidin-5-yl)propyl)-2-(dimethylamino)acetamido)methyl)phenyl)acetate]: the EC50 was 2.51 µM.
To `CCCCCNc1nc(N)nc(C)c1Cc1cccc(CC(=O)OC)c1` [Example 20, Methyl 2-(3-((2-amino-4-methyl-6-(pentylamino)pyrimidin-5-yl)methyl)phenyl)acetate] belongs 2 µM.
For `CCCCCNc1nc(N)nc(C)c1Cc1ccc(CC(=O)OC)cc1OC` [Example 21, Methyl 2-(4-((2-amino-4-methyl-6-(pentylamino)pyrimidin-5-yl)methyl)-3-methoxyphenyl)acetate], the concentration for a half-maximal effect (EC50) was 0.0158 µM.
To `CCCCCNc1nc(N)nc(C)c1Cc1ccc(CC(=O)OC)cc1F` [Example 22, Methyl 2-(4-((2-amino-4-methyl-6-(pentylamino)pyrimidin-5-yl)methyl)-3-fluorophenyl)acetate] belongs 0.631 µM; to `CCCCCNc1nc(N)nc(C)c1CCCNC(=O)Cc1ccc(CC(=O)OC)cc1` [Example 23, Methyl 2-(4-(2-(3-(2-amino-4-methyl-6-(pentylamino)pyrimidin-5-yl)propylamino)-2-oxoethyl)phenyl)acetate], 1 µM; to `CCCCCNc1nc(N)nc(C)c1CCCNC(=O)Cc1cccc(CC(=O)OC)c1` [Example 24, Methyl 2-(3-(2-(3-(2-amino-4-methyl-6-(pentylamino)pyrimidin-5-yl)propylamino)-2-oxoethyl)phenyl)acetate], 1 µM.
To `CCCCCNc1nc(N)nc(C)c1CCCNCc1cccc(OCC(=O)OC)c1` [Example 25, Methyl 2-(3-((3-(2-amino-4-methyl-6-(pentylamino)pyrimidin-5-yl)propylamino)methyl)phenoxy)acetate] belongs 0.794 µM; to `CCCCCNc1nc(N)nc(C)c1CCCN(Cc1ccc(CC(=O)OC)cc1)C(=O)CN1CCCC(c2ccc(S(C)(=O)=O)cc2)C1` (stereo not drawn) [Example 26, Methyl 2-(4-((N-(3-(2-amino-4-methyl-6-(pentylamino)pyrimidin-5-yl)propyl)-2-(3-(4-(methylsulfonyl)phenyl)piperidin-1-yl)acetamido)methyl)phenyl)acetate], 0.794 µM.
`CCCCCNc1nc(N)nc(C)c1CCCN(Cc1ccc(CC(=O)OC)cc1)C(=O)CN1CCOCC1` [Example 27, Methyl 2-(4-((N-(3-(2-amino-4-methyl-6-(pentylamino)pyrimidin-5-yl)propyl)-2-morpholinoacetamido)methyl)phenyl)acetate]: the EC50 is 2 µM.
To `CCCCCNc1nc(N)nc(C)c1CCCN(Cc1ccc(CC(=O)OC)cc1)C(=O)CN1CCC(c2ccccc2)CC1` [Example 28, Methyl 2-(4-((N-(3-(2-amino-4-methyl-6-(pentylamino)pyrimidin-5-yl)propyl)-2-(4-phenylpiperidin-1-yl)acetamido)methyl)phenyl)acetate] belongs 1.26 µM; to `CCCCCNc1nc(N)nc(C)c1CCCN(Cc1ccc(CC(=O)OC)cc1)C(=O)CN1CCCCC1` [Example 29, Methyl 2-(4-((N-(3-(2-amino-4-methyl-6-(pentylamino)pyrimidin-5-yl)propyl)-2-(piperidin-1-yl)acetamido)methyl)phenyl)acetate], 0.794 µM.
